From patent US9365522B2, “Pyrazole amide derivative” (AMGEN INC., priority 2015, dated 2016)

Target: T1, ligand binding domain of human ROR gamma (Homo sapiens, UniProt P51449)
T1 construct: NM_001001523; expressed in transfected cells; host or cells: HEK293T
T1 sequence (P51449 247-497 isoform P51449-2): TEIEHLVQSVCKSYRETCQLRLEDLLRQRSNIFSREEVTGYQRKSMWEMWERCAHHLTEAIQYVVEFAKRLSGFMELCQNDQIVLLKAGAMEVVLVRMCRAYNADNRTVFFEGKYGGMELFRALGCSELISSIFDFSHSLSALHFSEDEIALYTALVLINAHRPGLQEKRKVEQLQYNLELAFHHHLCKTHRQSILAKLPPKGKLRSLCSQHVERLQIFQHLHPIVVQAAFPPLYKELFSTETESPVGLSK
Test: ROR gamma reporter gene assay (GAL4-RORγ LBD luciferase, Dual-Glo)
Format: cell-based
Details: HEK293T cells transfected with pM-ROR gamma, 8 concentrations 3.5 nM to 10.5 μM, 24 h incubation; read-out: result (pIC50, inhibition of RORγ transcriptional activity) (converted)
Method in brief: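 Inhibition of RORγ-driven transcription was measured in HEK293T cells expressing a GAL4 fusion of the human RORγ LBD (aa 247-497), with renilla luciferase as internal control. Cells in 10% charcoal-stripped serum received compound (3.5 nM–10.5 μM) for 24 h.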

Row | IC50 | SMILES
1 | 45700 pM | COc1cccc(Cl)c1C(=O)CN(CC(C)(C)C)C(=O)c1cnn([C@H]2CC[C@](C)(C(=O)O)CC2)c1C(F)(F)F [Example 253, trans-4-(4-((2-(2-chloro-6-methoxyphenyl)-2-oxoethyl)-(2,2-dimethylpropyl)carbamoyl)-5-(trifluoromethyl)pyrazol-1-yl)-1-methylcyclohexane-1-carboxylic acid]
2 | 3.55e+06 pM | N[C@]1(C(=O)O)CC[C@H](n2ncc(C(=O)N(CC(=O)c3c(Cl)cncc3Cl)Cc3ccc(F)cc3)c2C(F)(F)F)CC1 [Example 117, cis-4-(4-((2-(3,5-dichloropyridin-4-yl)-2-oxoethyl)-((4-fluorophenyl)methyl)carbamoyl)-5-(trifluoromethyl)pyrazol-1-yl)-1-aminocyclohexane-1-carboxylic acid]
3 | 912000 pM | CC(C)(C)CC1CC(N(CC(=O)c2c(Cl)cc(F)cc2Cl)C(=O)c2cnn([C@H]3CC[C@](C)(C(=O)O)CC3)c2C(F)(F)F)C1 (stereo partly drawn) [Example 203, trans-4-(4-((2-(2,6-dichloro-4-fluorophenyl)-2-oxoethyl)-(3-(2,2-dimethylpropyl)cyclobutyl)carbamoyl)-5-(trifluoromethyl)pyrazol-1-yl)-1-methylcyclohexane-1-carboxylic acid]
4 | 316000 pM | O=C(CN(CC(F)(F)F)C(=O)c1cnn([C@H]2CC[C@H](C(=O)O)CC2)c1C(F)(F)F)c1c(Cl)cncc1Cl [Example 75, trans-4-(4-((2-(3,5-dichloropyridin-4-yl)-2-oxoethyl)(2,2,2-trifluoroethyl)carbamoyl)-5-(trifluoromethyl)-1H-pyrazol-1-yl)cyclohexanecarboxylic acid]
5 | 10700 pM | CC1(C)CCC(N(CC(=O)c2c(Cl)cc(Cl)cc2Cl)C(=O)c2cnn(C34CCC(C(=O)O)(CC3)CC4)c2C(F)(F)F)CC1 [Example 231, 4-(4-((4,4-dimethylcyclohexyl)-(2-oxo-2-(2,4,6-trichlorophenyl)ethyl)carbamoyl)-5-(trifluoromethyl)pyrazol-1-yl)bicyclo[2.2.2]octane-1-carboxylic acid]
6 | 3.09e+06 pM | O=C(CN(Cc1cc(F)cc(F)c1)C(=O)c1cnn([C@H]2CC[C@H](C(=O)O)CC2)c1Cl)c1c(Cl)cncc1Cl [Example 135, trans-4-(5-chloro-4-((2-(3,5-dichloropyridin-4-yl)-2-oxoethyl)-((3,5-difluorophenyl)methyl)carbamoyl)pyrazol-1-yl)cyclohexane-1-carboxylic acid]
7 | 15500 pM | O=C(CN(Cc1ccc(F)cc1)C(=O)c1cnn(C23CCC(C(=O)O)(CC2)CC3)c1C(F)(F)F)c1c(Cl)cncc1Cl [Example 166, 4-(4-((2-(3,5-dichloropyridin-4-yl)-2-oxoethyl)-((4-fluorophenyl)methyl)carbamoyl)-5-(trifluoromethyl)pyrazol-1-yl)bicyclo[2.2.2]octane-1-carboxylic acid]
8 | 174000 pM | CC1(C)CC[C@H](N(CC(=O)c2c(Cl)cncc2Cl)C(=O)c2cnn([C@H]3CC[C@H](C(=O)O)CC3)c2C(F)(F)F)C1 [Example 183, trans-4-(4-((2-(3,5-dichloropyridin-4-yl)-2-oxoethyl)-((1S)-3,3-dimethylcyclopentyl)carbamoyl)-5-(trifluoromethyl)pyrazol-1-yl)cyclohexane-1-carboxylic acid]
9 | 61700 pM | COc1cc(Cl)cc(Cl)c1C(=O)CN(Cc1cc(F)cc(F)c1)C(=O)c1cnn([C@H]2CC[C@H](C(=O)O)CC2)c1C(F)(F)F [Example 112, trans-4-(4-((2-(2,4-dichloro-6-methoxyphenyl)-2-oxoethyl)-((3,5-difluorophenyl)methyl)carbamoyl)-5-(trifluoromethyl)pyrazol-1-yl)cyclohexane-1-carboxylic acid]
10 | 9120 pM | CCC(C)(C)CN(CC(=O)c1c(Cl)cncc1Cl)C(=O)c1cnn([C@H]2CC[C@](C)(C(=O)O)CC2)c1C(F)(F)F [Example 286, trans-4-(4-((2-(3,5-dichioropyridin-4-yl)-2-oxoethyl)-(2,2-dimethylbutyl)carbamoyl)-5-(trifluoromethyl)pyrazol-1-yl)-1-methylcyclohexane-1-carboxylic acid]
11 | 151000 pM | CC(C)(C)OCCN(CC(=O)c1c(Cl)cncc1Cl)C(=O)c1cnn([C@H]2CC[C@H](C(=O)O)CC2)c1C(F)(F)F [Example 95, trans-(4((2-(3,5-dichloropyridin-4-yl)-2-oxoethyl)-(2-((2-methylpropan-2-yl)oxy)ethyl)carbamoyl)-5-(trifluoromethyl)pyrazol-1-yl)cyclohexane-1-carboxylic acid]
12 | 30900 pM | Cc1cc(Cl)c(C(=O)CN(C(=O)c2cnn([C@H]3CC[C@](C)(C(=O)O)CC3)c2C)[C@H]2C[C@@H]3[C@H](C2)C3(C)C)c(Cl)c1 [Example 365, trans-4-(4-((2-(2,6-dichloro-4-methylphenyl)-2-oxoethyl)((1R,3r,5S)-6,6-dimethylbicyclo[3.1.0]hexan-3-yl)carbamoyl)-5-methyl-1H-pyrazol-1-yl)-1-methylcyclohexanecarboxylic acid]
13 | 380000 pM | CS(=O)(=O)c1cc(Cl)c(C(=O)CN(Cc2cc(F)cc(F)c2)C(=O)c2cnn([C@H]3CC[C@H](C(=O)O)CC3)c2C(F)(F)F)c(Cl)c1 [Example 4, trans-4-(4-((2-(2,6-dichloro-4-(methylsulfonyl)phenyl)-2-oxoethyl)(3,5-difluorobenzyl)carbamoyl)-5-(trifluoromethyl)-1H-pyrazol-1-yl)cyclohexanecarboxylic acid]
14 | 8130 pM | CC1(C)C(CN(CC(=O)c2c(Cl)cncc2Cl)C(=O)c2cnn(C34CCC(C(=O)O)(CC3)CC4)c2C(F)(F)F)C1(C)C [Example 322, 4-(4-((2-(3,5-dichloropyridin-4-yl)-2-oxoethyl)-((2,2,3,3-tetramethylcyclopropyl)methyl)carbamoyl)-5-(trifluoromethyl)pyrazol-1-yl)bicyclo[2.2.2]octane-1-carboxylic acid]
15 | 138000 pM | CC1(C)CCCC(N(CC(=O)c2c(Cl)cncc2Cl)C(=O)c2cnn([C@H]3CC[C@H](C(=O)O)CC3)c2C(F)(F)F)C1 (stereo partly drawn) [Example 205, trans-4-(4-((2-(3,5-dichloropyridin-4-yl)-2-oxoethyl)-(3,3-dimethylcyclohexyl)carbamoyl)-5-(trifluoromethyl)pyrazol-1-yl)cyclohexane-1-carboxylic acid]
16 | 331000 pM | O=C(CN(Cc1csc(Cl)n1)C(=O)c1cnn([C@H]2CC[C@H](C(=O)O)CC2)c1C(F)(F)F)c1c(Cl)cncc1Cl [Example 167, trans-4-(4-((2-chloro-1,3-thiazol-4-yl)methyl-(2-(3,5-dichloropyridin-4-yl)-2-oxoethyl)carbamoyl)-5-(trifluoromethyl)pyrazol-1-yl)cyclohexane-1-carboxylic acid]
17 | 61700 pM | CC1(C)[C@@H]2C[C@H](N(C[C@@H](O)c3sccc3Cl)C(=O)c3cnn([C@H]4CC[C@](C)(C(=O)O)CC4)c3C(F)(F)F)C[C@@H]21 [Example 397, trans-4-(4-((2-(3-chlorothiophen-2-yl)-2-hydroxyethyl)((1R,3r,5S)-6,6-dimethylbicyclo[3.1.0]hexan-3-yl)carbamoyl)-5-(trifluoromethyl)-1H-pyrazol-1-yl)-1-methylcyclohexanecarboxylic acid]
18 | 3390 pM | Cc1cc(Cl)c(C(=O)CN(CC2(F)CCCC2)C(=O)c2cnn([C@H]3CC[C@](C)(C(=O)O)CC3)c2C(F)(F)F)c(Cl)c1 [Example 282, trans-4-(4-((2-(2,6-dichloro-4-methylphenyl)-2-oxoethyl)-((1-fluorocyclopentyl)methyl)carbamoyl)-5-(trifluoromethyl)pyrazol-1-yl)-1-methylcyclohexane-1-carboxylic acid]
19 | 117000 pM | CC1(C)CC[C@H](CN(CC(=O)c2c(Cl)cncc2Cl)C(=O)c2cnn([C@H]3CC[C@H](C(=O)O)CC3)c2C(F)(F)F)O1 [Example 16, trans-4-(4-((2-(3,5-dichloropyridin-4-yl)-2-oxoethyl)(((R)-5,5-dimethylTHF-2-yl)methyl)carbamoyl)-5-(trifluoromethyl)-1H-pyrazol-1-yl)cyclohexanecarboxylic acid]
20 | 70800 pM | O=C(CN(Cc1cc(F)cc(F)c1)C(=O)c1cnn([C@H]2CC[C@H](C(=O)O)CC2)c1C(F)(F)F)c1c(F)cncc1Cl [Example 50, trans-4-(4-((2-(3-chloro-5-fluoropyridin-4-yl)-2-oxoethyl)(3,5-difluorobenzyl)carbamoyl)-5-(trifluoromethyl)-1H-pyrazol-1-yl)cyclohexanecarboxylic acid]
21 | 87100 pM | O=C(CN(CC1CCC(F)(F)CC1)C(=O)c1cnn([C@H]2CC[C@H](C(=O)O)CC2)c1C(F)(F)F)c1c(Cl)cncc1Cl [Example 101, trans-4-(4-((2-(3,5-dichloropyridin-4-yl)-2-oxoethyl)-((4,4-difluorocylohexyl)methyl)carbamoyl)-5-(trifluoromethyl)pyrazol-1-yl)cyclohexane-1-carboxylic acid]

Row | SMILES | IC50
22 | C[C@]1(C(=O)O)CC[C@H](n2ncc(C(=O)N(CC(=O)c3c(Cl)cc(F)cc3Cl)C3CC4CCC(C3)N4)c2C(F)(F)F)CC1 (stereo partly drawn) [Example 304, trans-4-(4-(8-azabicyclo [3.2.1]octan-3-yl-(2-[2,6-dichloro-4-fluorophenyl)-2-oxoethyl)carbamoyl)-5-(trifluoromethyl)pyrazol-1-yl)-1-methylcyclohexane-1-carboxylic acid] | > 1.05e+07 pM
